This note sets out measurements from patent publication US20220143003A1, “COMPOSITIONS AND METHODS TO TREAT NON-ALCOHOLIC FATTY LIVER DISEASES (NAFLD)” (Coherus Biosciences, Inc., priority 2018, published 2022).

This data set deals with DIO-NASH mice. The experiment in a line: Plasma urea at termination. The data set is classed as in vivo, male C57BL/6JRj mice. The note with it: termination; group mean; CHS-131 High dose (alone or combined). As for the experimental part: For plasma biochemistry, tail blood was drawn directly through the capillary of a Microvette/Vacuette of the right dimension and anticoagulant and mixed by inversion 5 times. Blood was placed at 4° C. until centrifugation at 3000×g for 10 minutes at 4° C. The plasma supernatants were transferred to new tubes and immediately frozen on dry ice and stored at −80° C. until analysis.
Mouse insulin was measured in single determinations using the MSD platform (Meso Scale Diagnostics).
Plasma urea at termination (mmol/L). Values expressed as mean of n=12-14+SEM.

Regarding `CCCCCCCCCCCCCCCC(=O)N[C@@H](CCC(=O)NCCCC[C@H](NC(=O)[C@H](C)NC(=O)[C@H](C)NC(=O)[C@H](CCC(N)=O)NC(=O)CNC(=O)[C@H](CCC(=O)O)NC(=O)[C@H](CC(C)C)NC(=O)[C@H](Cc1ccc(O)cc1)NC(=O)[C@H](CO)NC(=O)[C@H](CO)NC(=O)[C@@H](NC(=O)[C@H](CC(=O)O)NC(=O)[C@H](CO)NC(=O)[C@@H](NC(=O)[C@H](Cc1ccccc1)NC(=O)[C@@H](NC(=O)CNC(=O)[C@H](CCC(=O)O)NC(=O)[C@H](C)NC(=O)[C@@H](N)Cc1cnc[nH]1)[C@@H](C)O)[C@@H](C)O)C(C)C)C(=O)N[C@@H](CCC(=O)O)C(=O)N[C@@H](Cc1ccccc1)C(=O)N[C@H](C(=O)N[C@@H](C)C(=O)N[C@@H](Cc1c[nH]c2ccccc12)C(=O)N[C@@H](CC(C)C)C(=O)N[C@H](C(=O)N[C@@H](CCCNC(=N)N)C(=O)NCC(=O)N[C@@H](CCCNC(=N)N)C(=O)NCC(=O)O)C(C)C)[C@@H](C)CC)C(=O)O` [Liraglutide, reference compound], the “Plasma urea at termination” value turned out to be 7.86 mmol/L.
